# Experimental data from PMC5920042, “KH176 Safeguards Mitochondrial Diseased Cells from Redox Stress-Induced Cell Death by Interacting with the Thioredoxin System/Peroxiredoxin Enzyme Machinery” (Scientific Reports, 2018).
# Where “and” joins values, the source holds several entries; their conditions need not be identical. Identical values can stand only once.
# Columns and labels:
# [1] = tested on: P4 cell line; test: Cellular ROS assay (DCFH-DA); format: cell-based, human; details: P4 cells, 24 h compound treatment
# Method: The cells were then treated for 72 h (or shorter as indicated) with culture medium containing semi-logarithmic dilutions of the test compound. Alternatively, 3 × 10^3 cells/well were seeded when cells were treated for 24 h only. At the end of the incubation period, cells were loaded with 40 µM DCFH-DA (#D6883, Sigma-Aldrich). in M199 without phenol red for 30 min. The excess of the dye was washed with ice-cold M199 without phenol red and the cells were lysed with 100 µl/well of ice-cold 0.2% Triton X-100 in M199 without phenol red after 10 min incubation in ice. Cellular debris was spun down by centrifugation at 2600 g, 5 min, +4 °C and 90 µl/well of cell lysate were transferred to a black 96-wells plate and DCF fluorescence was measured on a scanning microplate reader (BMG FLUOstar Omega; Ex. 480 nm, Em. 520 nm).
# [2] = tested on: primary human skin fibroblasts; test: Cellular superoxide detection by HEt oxidation; format: cell-based; details: basal, 24 h compound; read-out: EC50 decrease of basal cellular superoxide levels (HEt)
# Method: The cells were seeded at a density of 3 × 10^3 cells/well into 96-wells black plates. After 24 h, the cells were incubated with different amounts of KH176(m) for 24 h. For the cellular superoxide measurements cells were then washed with M199 without phenol red and incubated with HEt (#D11347, ThermoFisher) in this same medium for 10 minutes. […] Total cellular fluorescence per well was normalized on the incubation with the probe but without compound (vehicle set as 100%). Experiments were performed at least three times with 3 wells per experiment.
# [3] = tested on: P4 cell line; test: GSH measurements (GSH-Glo) under BSO; format: cell-based, human; details: increasing BSO 24 h, 1 µM compound
# Method: Cells were seeded at a density of 4 × 10^3 cells/well into 96-wells white plates (#655098, Greiner Bio-one). After 24 h the cells were treated with semi-logarithmic dilutions of BSO up to a concentration of 100 µM alone or in co-incubation with a fixed amount of the test compound. 24 h after the treatment, GSH levels were measured with the GSH-Glo™ Glutathione Assay (# V6911, Promega) according to the manufacturer instructions. Luminescence was measured on a scanning microplate reader (BMG FLUOstar Omega).
# [4] = target: T1, human Prdx2 (Homo sapiens, UniProt P32119); test: Surface Plasmon Resonance binding; details: immobilized Prdx2, SPR
# T1 construct: purchased Novus Biological NBC1-25855
# T1 sequence (P32119 1-198): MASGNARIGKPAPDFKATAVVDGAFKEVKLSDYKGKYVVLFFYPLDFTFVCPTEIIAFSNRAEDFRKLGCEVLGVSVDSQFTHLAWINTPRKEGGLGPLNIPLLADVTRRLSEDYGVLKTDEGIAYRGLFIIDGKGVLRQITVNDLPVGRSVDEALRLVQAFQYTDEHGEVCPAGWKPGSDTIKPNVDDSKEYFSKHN
# Method: Prior to protein immobilization all proteins were dialyzed against HBS-E (10 mM Hepes, 150 mM NaCl, 3 mM EDTA) buffer that was previously filtered through a 0.45 µM membrane using dialyze slide according to the manufacturer instruction. Human recombinant proteins peroxiredoxin 2 (Novus Biological NBC1-25855) and CCDC101 (Abcam Ab124547) were immobilized on CM5 (carboxymethylated dextran covalently attached to a gold surface) using the amine coupling method according to manufacturer’s recommendation (Biacore, GE Healthcare). Briefly the CM5 surface was activated with the mixture of EDC/NHS. Recombinant proteins at dilution 1 µg/ml in a corresponding buffer i.e. Peroxiredoxin 2 and CCDC101 in sodium acetate buffer 100 mM (pH 4.9). The control channel was activated with EDC/NHS. All channels were thereafter saturated with 0.1 M ethanolamine solution. KH176 andKH176m were solubilized in HBSS at stock solution 1 mM. They were thereafter further diluted in HBSS to final concentrations 0.31e-6M, 0.62e-6M, 1.25e-6M, 2.5e-6M and 5.0e-6M and injected over the flow cells at a flow rate equal to […] for 2 min, followed by a dissociation phase of 4 min. The sensor chip surface was regenerated with 1 mM HCl. The specific binding profiles were obtained after subtracting the response signal from the control empty channel and from blank-buffer injection. The specific binding was calculated using Biaeval 3 software (Biacore, GE Healthcare) with the postulate of 1:1 ligand/analyte interaction. Based on the Chi^2 value in regard to the Rmax (less than 10%) and the difference interval ±2.5 RU theoretic fitting compared to experimental results, best fitting algorithm between Langmuir or drifting base line was applied.
# [5] = Single dose pharmacokinetics and bioavailability study; format: in vivo, male Sprague Dawley rats; details: rat, plasma
# Method: (§1) Pharmacokinetics and toxicokinetics measurements were performed by the commercial Contract Research Organizations Sai Life Sciences and WuXi AppTec, respectively, according to their standard protocols and in accordance with relevant guidelines and regulations. C57 BL/6 mice, Sprague Dawley rats, and Beagle dogs were studied.
# [6] = 28-day repeat oral dose toxicity study, toxicokinetics; format: in vivo, Beagle dogs; details: dog
# Method: as §1
# [7] = KH176 10 mg/kg/dose BID oral, F, Day 1, plasma
# [8] = KH176 10 mg/kg/dose BID oral, F, Day 28, plasma
# [9] = KH176 10 mg/kg/dose BID oral, M, Day 1, plasma
# [10] = KH176 10 mg/kg/dose BID oral, M, Day 28, plasma
# [11] = KH176 25 mg/kg/dose BID oral, F, Day 1, plasma
# [12] = KH176 25 mg/kg/dose BID oral, F, Day 28, plasma
# [13] = KH176 25 mg/kg/dose BID oral, M, Day 1, plasma
# [14] = KH176 25 mg/kg/dose BID oral, M, Day 28, plasma
# [15] = KH176 62.5 mg/kg/dose BID oral, F, Day 1, plasma
# [16] = KH176 62.5 mg/kg/dose BID oral, F, Day 28, plasma
# [17] = KH176 62.5 mg/kg/dose BID oral, M, Day 1, plasma
# [18] = KH176 62.5 mg/kg/dose BID oral, M, Day 28, plasma
smiles,measurement,setting,value
CC1=C(C)C(=O)C(CC[C@](C)(O)C(=O)N[C@@H]2CCCNC2)=C(C)C1=O [KH176m],IC50,[1],0.25 µM and 0.255 µM
same,EC50,[2],1.7 µM
same,GSH level under BSO,[3],remained unaffected
same,Binding to Prdx2,[4]; 0.31-5.0 µM,dose-dependent binding
same,Kd,"[4]; read-out: Affinity (Kd), Langmuir one site model",0.305 µM
same,AUCINF,[5]; KH176 2 mg/kg i.v.,206.1 ng·h/mL
same,AUClast,[5]; KH176 2 mg/kg i.v.,150.2 ng·h/mL
same,T1/2,[5]; KH176 2 mg/kg i.v.,2.3 h
same,C0 (i.v.),"[5]; KH176 2 mg/kg i.v., back extrapolated",59.7 ng/mL
same,AUCINF,[5]; KH176 10 mg/kg p.o.,1503.2 ng·h/mL
same,AUClast,[5]; KH176 10 mg/kg p.o.,1441.1 ng·h/mL
same,Cmax (p.o.),[5]; KH176 10 mg/kg p.o.,396.4 ng/mL
same,Tmax,[5]; KH176 10 mg/kg p.o.,0.5 h
same,AUC0–24 h Ratio KH176m/KH176,"[6]; KH176 10 mg/kg/dose BID oral, F, Day 1",0.864
same,AUC0–24 h,[6]; [7],7640 ng·h/mL
same,Cmax,[6]; [7],539 ng/mL
same,T1/2,[6]; [7],5.4 h
same,AUC0–24 h Ratio KH176m/KH176,"[6]; KH176 10 mg/kg/dose BID oral, F, Day 28",0.719
same,AUC0–24 h,[6]; [8],10500 ng·h/mL
same,Cmax,[6]; [8],786 ng/mL
same,T1/2,[6]; [8],4.7 h
same,AUC0–24 h Ratio KH176m/KH176,"[6]; KH176 10 mg/kg/dose BID oral, M, Day 1",0.848
same,AUC0–24 h,[6]; [9],13900 ng·h/mL
same,Cmax,[6]; [9],946 ng/mL
same,T1/2,[6]; [9],4.7 h
same,AUC0–24 h Ratio KH176m/KH176,"[6]; KH176 10 mg/kg/dose BID oral, M, Day 28",0.668
same,AUC0–24 h,[6]; [10],12700 ng·h/mL
same,Cmax,[6]; [10],916 ng/mL
same,T1/2,[6]; [10],7.7 h
same,AUC0–24 h Ratio KH176m/KH176,"[6]; KH176 25 mg/kg/dose BID oral, F, Day 1",0.845
same,AUC0–24 h,[6]; [11],35400 ng·h/mL
same,Cmax,[6]; [11],2200 ng/mL
same,AUC0–24 h Ratio KH176m/KH176,"[6]; KH176 25 mg/kg/dose BID oral, F, Day 28",0.823
same,AUC0–24 h,[6]; [12],32900 ng·h/mL
same,Cmax,[6]; [12],2170 ng/mL
same,AUC0–24 h Ratio KH176m/KH176,"[6]; KH176 25 mg/kg/dose BID oral, M, Day 1",0.967
same,AUC0–24 h,[6]; [13],41200 ng·h/mL
same,Cmax,[6]; [13],2610 ng/mL
same,T1/2,[6]; [13],11.1 h
same,AUC0–24 h Ratio KH176m/KH176,"[6]; KH176 25 mg/kg/dose BID oral, M, Day 28",0.970
same,AUC0–24 h,[6]; [14],38700 ng·h/mL
same,Cmax,[6]; [14],2270 ng/mL
same,T1/2,[6]; [14],14.3 h
same,AUC0–24 h Ratio KH176m/KH176,"[6]; KH176 62.5 mg/kg/dose BID oral, F, Day 1",0.908
same,AUC0–24 h,[6]; [15],57300 ng·h/mL
same,Cmax,[6]; [15],3550 ng/mL
same,T1/2,[6]; [15],5.3 h
same,AUC0–24 h Ratio KH176m/KH176,"[6]; KH176 62.5 mg/kg/dose BID oral, F, Day 28",0.938
same,AUC0–24 h,[6]; [16],80200 ng·h/mL
same,Cmax,[6]; [16],4990 ng/mL
same,T1/2,[6]; [16],12.2 h
same,AUC0–24 h Ratio KH176m/KH176,"[6]; KH176 62.5 mg/kg/dose BID oral, M, Day 1",0.743
same,AUC0–24 h,[6]; [17],68000 ng·h/mL
same,Cmax,[6]; [17],4020 ng/mL
same,T1/2,[6]; [17],12.9 h
same,AUC0–24 h Ratio KH176m/KH176,"[6]; KH176 62.5 mg/kg/dose BID oral, M, Day 28",0.835
same,AUC0–24 h,[6]; [18],85200 ng·h/mL
same,Cmax,[6]; [18],5250 ng/mL
